# From patent publication US7960384B2, “Dipeptidyl peptidase inhibitors” (Takeda Pharmaceutical Company Limited, priority 2006, dated 2011)
# Target: Human DPP-IV (Homo sapiens, UniProt P27487)
# Assay: DPP-IV Assay (protease inhibition, AP-AFC substrate)
# Type: biochemical
# Method: Solutions of test compounds in varying concentrations (≦10 mM final concentration) were prepared in Dimethyl Sulfoxide (DMSO) and then diluted into assay buffer comprising: 20 mM Tris, pH 7.4; 20 mM KCl; and 0.1 mg/mL BSA. Human DPP-IV (0.1 nM final concentration) was added to the dilutions and pre-incubated for 10 minutes at ambient temperature before the reaction was initiated with A-P-7-amido-4-trifluoromethylcoumarin (AP-AFC; 10 μM final concentration). The total volume of the reaction mixture was 10-100 μL depending on assay formats used (384 or 96 well plates). The reaction was followed kinetically (excitation λ=400 nm; emission λ=505 nm) for 5-10 minutes or an end-point was measured after 10 minutes. Inhibition constants (IC50) were calculated from the enzyme progress curves using standard mathematical models.
# Chain of Human DPP-IV (P27487 whole entry): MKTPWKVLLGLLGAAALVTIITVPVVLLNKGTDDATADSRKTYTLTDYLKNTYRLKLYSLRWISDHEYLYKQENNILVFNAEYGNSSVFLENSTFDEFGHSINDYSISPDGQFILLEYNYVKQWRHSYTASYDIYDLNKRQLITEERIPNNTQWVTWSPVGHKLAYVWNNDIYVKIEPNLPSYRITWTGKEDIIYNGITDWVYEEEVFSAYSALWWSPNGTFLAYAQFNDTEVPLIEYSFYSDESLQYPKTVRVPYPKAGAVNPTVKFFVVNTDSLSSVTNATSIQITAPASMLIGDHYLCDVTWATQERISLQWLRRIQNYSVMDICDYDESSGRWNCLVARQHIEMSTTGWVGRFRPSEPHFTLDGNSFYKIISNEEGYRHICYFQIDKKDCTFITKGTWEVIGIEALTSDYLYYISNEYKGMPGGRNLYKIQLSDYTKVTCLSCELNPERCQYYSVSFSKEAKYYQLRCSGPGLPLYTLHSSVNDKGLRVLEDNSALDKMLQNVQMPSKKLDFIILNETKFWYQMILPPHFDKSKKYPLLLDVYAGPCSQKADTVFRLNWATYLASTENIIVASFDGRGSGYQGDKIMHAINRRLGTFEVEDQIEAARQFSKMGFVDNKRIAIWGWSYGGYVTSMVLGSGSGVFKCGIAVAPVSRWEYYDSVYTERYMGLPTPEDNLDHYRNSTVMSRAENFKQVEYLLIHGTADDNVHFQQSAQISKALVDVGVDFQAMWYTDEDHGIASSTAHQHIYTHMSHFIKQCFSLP
smiles,measurement,setting,value
"COc1ccccc1-c1ccc2[nH]c(=O)c(=O)[nH]c2c1CN [Example 1, 5-Aminomethyl-6-(2-methoxy-phenyl)-1,4-dihydro-quinoxaline-2,3-dione]",IC50,"DPP-IV inhibition, Human DPP-IV 0.1 nM, AP-AFC 10 μM",< 50 µM
same,selectivity in protease inhibition assays,"tested in DPP-IV, FAPα, PREP and Tryptase assays",selective DPP-IV inhibitory activity
